Assay results as given in US8703793B2, “Tricyclic pyridine derivatives, medicaments containing such compounds, their use and process for their preparation” (Boehringer Ingelheim International GmbH, priority 2008, dated 2014).

Biological target: T1, Recombinant human CETP (Homo sapiens, UniProt P11597)
T1 construct: made in house; host or cells: CHO cells (secreted into conditioned medium)
T1 sequence (P11597 18-493): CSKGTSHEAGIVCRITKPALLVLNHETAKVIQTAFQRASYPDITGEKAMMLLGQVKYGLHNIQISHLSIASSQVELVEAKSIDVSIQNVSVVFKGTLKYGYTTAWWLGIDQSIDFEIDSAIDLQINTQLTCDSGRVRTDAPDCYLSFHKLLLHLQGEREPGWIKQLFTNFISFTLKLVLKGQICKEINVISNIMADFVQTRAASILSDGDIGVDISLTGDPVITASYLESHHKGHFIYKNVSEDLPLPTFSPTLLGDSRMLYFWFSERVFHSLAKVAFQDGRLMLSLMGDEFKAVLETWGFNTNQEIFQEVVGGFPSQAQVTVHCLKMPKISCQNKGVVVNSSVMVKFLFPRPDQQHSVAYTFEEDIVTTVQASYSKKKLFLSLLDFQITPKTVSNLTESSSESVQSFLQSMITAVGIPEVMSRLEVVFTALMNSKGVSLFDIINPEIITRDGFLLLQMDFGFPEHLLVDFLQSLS
Test: CETP Scintillation Proximity Assay
Assay type: biochemical
Conditions: for IC50: 3H-cholesteryl ester transfer from human HDL donor to biotin labelled LDL, over night at room temperature, read-out: IC50 values for CETP inhibitory activity; for CETP inhibitory potency compared to the other diastereomers: comparison among diastereomers of the same structure
Method: CETP Scintillation Proximity Assay
Recombinant human CETP is partially purified from medium conditioned by CETP expressing CHO cells. In a 96 well homogeneous assay format CETP transfers ^3H-labelled cholesteryl esters from human HDL donor particles to biotin labelled LDL particles. Following over night incubation at room temperature the reaction is stopped by addition of streptavidin-coupled scintillation proximity assay (SPA) beads. These beads captured the biotinylated acceptor particles and the radioactivity is measured. The assay system is purchased and performed according to the manufacturer's recommendations (GE Healthcare).
Inhibitory activity of compounds is determined as percentage of positive control activity containing CETP together with donor and acceptor particles. Background activity is determined by adding buffer instead of CETP. Serial dilution of compound in buffer containing 10% DMSO is performed in order to determine the IC50 values.

Row | SMILES | IC50 [nM] | CETP inhibitory potency compared to the other diastereomers
1 | CC1(C)Cc2nc3c(c(C4CCCC4)c2[C@@H](O)C1)[C@@H](c1ccc(C(F)(F)F)cc1)OC31CCCCC1 (single isomer, unassigned) [1 (9), (1′R,8′S)-9′-Cyclopentyl-6′,6′-dimethyl-1′-(4-(trifluoromethyl)phenyl)-5′,6′,7′,8′-tetrahydro-1′H-spiro[cyclohexane-1,3′-furo[3,4-b]quinolin]-8′-ol] | < 20000 | –
2 | CC1(C)Cc2nc3c(c(C4CCCC4)c2[C@@H](O)C1)C(c1ccc(C(F)(F)F)cc1)OC3 (single isomer, unassigned) [Diastereomer 1 of Example 1 (3)] | < 20000 | –
3 | CC1OC(c2ccc(C(F)(F)F)cc2)c2c1nc1c(c2C2CCCC2)[C@@H](O)CC(C)(C)C1 (single isomer, unassigned) [Diastereomer 4 of Example 1 (2)] | < 2000 | –
4 | CC1OC(c2ccc(C(F)(F)F)cc2)c2c1nc1c(c2C2CCCC2)[C@@H](O)CC(C)(C)C1 (single isomer, unassigned) [Example 1 (1)] | < 2000 | –
5 | CC1(C)Cc2nc3c(c(C4CCCC4)c2C(O)C1)C(c1ccc(C(F)(F)F)cc1)OC3(C)C (single isomer, unassigned) [Example 1 (4), 9-Cyclopentyl-3,3,6,6-tetramethyl-1-(4-trifluoromethyl-phenyl)-1,3,5,6,7,8-hexahydro-furo[3,4-b]quinolin-8-ol] | < 5000 | –
6 | CC1(C)Cc2nc3c(c(C4CCCC4)c2[C@@H](O)C1)C(c1ccc(C(F)(F)F)cc1)OC3(C)C (single isomer, unassigned) [Example 1 (6)] | < 20000 | –
7 | CC1OC(c2ccc(C(F)(F)F)cc2)c2c1nc1c(c2C2CCCCC2)[C@@H](O)CC(C)(C)C1 (single isomer, unassigned) [Example 1 (7)] | < 1000 | –
8 | CC1OC(c2ccc(C(F)(F)F)cc2)c2c1nc1c(c2C2CCCC2)[C@@H](O)CC(C)(C)C1 (single isomer, unassigned) [Example 1] | < 2000 | –
9 | CC1OC(c2ccc(C(C)(C)C)cc2)c2c1nc1c(c2C2CCCCC2)[C@@H](O)CC(C)(C)C1 (stereo partly drawn) [Example 2, 8-(S)-1-(4-tert-Butyl-phenyl)-9-cyclohexyl-3,6,6-trimethyl-1,3,5,6,7,8-hexahydro-furo[3,4b]quinolin-8-ol] | < 5000 | –

Continued, in another order:

Row | IC50 [nM] | SMILES | CETP inhibitory potency compared to the other diastereomers
10 | < 1000 | CC1(C)Cc2nc3c(c(C4CCCC4)c2[C@@H](O)C1)[C@H](c1ccc(C(F)(F)F)cc1)OC31CCCCC1 (single isomer, unassigned) [1 (8), (1′S,8′S)-9′-Cyclopentyl-6′,6′-dimethyl-1′-(4-(trifluoromethyl)phenyl)-5′,6′,7′,8′-tetrahydro-1′H-spiro[cyclohexane-1,3′-furo[3,4-b]quinolin]-8′-ol] | –
11 | < 1000 | CC1(C)Cc2nc3c(c(C4CCCC4)c2[C@@H](O)C1)[C@H](c1ccc(C(F)(F)F)cc1)OC31CCCC1 (single isomer, unassigned) [1 (10), (1′S,8′S)-9′-Cyclopentyl-6′,6′-dimethyl-1′-(4-(trifluoromethyl)phenyl)-5′,6′,7′,8′-tetrahydro-1′H-spiro[cyclopentane-1,3′-furo[3,4-b]quinolin]-8′-ol] | –
12 | < 1000 | CC1OC(c2ccc(C(F)(F)F)cc2)c2c1nc1c(c2C2CCCC2)[C@@H](O)CC(C)(C)C1 (single isomer, unassigned) [Diastereomer 3 of Example 1 (2)] | higher CETP inhibitory potency as compared to the other diastereomers
13 | < 1000 | CC1(C)Cc2nc3c(c(C4CCCC4)c2[C@@H](O)C1)C(c1ccc(C(F)(F)F)cc1)OC3(C)C (single isomer, unassigned) [Example 1 (5)] | higher CETP inhibitory potency as compared to the other diastereomer
